Experimental data reported in patent publication EP0052361A1, “Novel 16-membered macrolide compounds” (SANRAKU-OCEAN CO., LTD., priority 1980, dated 1982).
Values after ≈ are worked out from the molar mass of the structure shown. One block for each compound: values may come before it.

How the values were obtained:
Test in all cases: MIC by tube dilution method in brain heart infusion broth
Format in all cases: cell-based
[1] = system: Klebsiella pneumoniae PCI602; conditions: Klebsiella pneumoniae, PCI602, pH 7.5, read-out: Antimicrobial activity (MIC) Klebsiella pneumonae PCI602
Procedure: (§1) The minimum growth inhibitory concentrations (MIC) of the compounds (I) against various microorganisms were measured by a tube dilution method in a brain heart infusion broth (pH 7.5) as a medium.

[2] = system: Bacillus subtilis NRRL B-558; conditions: Bacillus subtilis, NRRLB558, pH 7.5, read-out: Antimicrobial activity (MIC) Bacillus subtilis NRRL B558
Procedure: as §1

[3] = system: Staphylococcus aureus MS9861; conditions: MS9861, pH 7.5, read-out: Antimicrobial activity (MIC) Staphylococcus aureus MS9861
Procedure: as §1

[4] = system: Staphylococcus aureus 209P; conditions: Staphylococcus aureus, 209P, pH 7.5, read-out: Antimicrobial activity (MIC) Staphylococcus aureus 209P
Procedure: as §1

SMILES: CCC1OC(=O)CC(O)C(C)C(OC2OC(C)C(OC3CC(C)(OC(C)=O)C(OC(=O)Cc4cccnc4)C(C)O3)C(N(C)C)C2O)C(CC=O)CC(C)C(=O)C=CC(C)=CC1C (stereo not drawn)
MIC [1]: 3.1 µg/mL (≈ 3.49 µM)
MIC [2]: < 0.2 µg/mL
MIC [3]: 1.6 µg/mL (≈ 1.8 µM)
MIC [4]: 0.4 µg/mL (≈ 0.451 µM)

SMILES: CCC1OC(=O)CC(O)C(C)C(OC2OC(C)C(OC3CC(C)(O)C(OC(=O)C4CCCCC4)C(C)O3)C(N(C)C)C2O)C(CC=O)CC(C)C(=O)/C=C/C(C)=C/C1C (stereo not drawn)
MIC [1]: 12.5 µg/mL (≈ 15 µM)
MIC [2]: 0.2 µg/mL (≈ 0.239 µM)
MIC [3]: 3.1 µg/mL (≈ 3.71 µM)
MIC [4]: 0.8 µg/mL (≈ 0.957 µM)

SMILES: CCC1OC(=O)CC(O)C(C)C(OC2OC(C)C(OC3CC(C)(OC(C)=O)C(OC(=O)C4CCCCC4)C(C)O3)C(N(C)C)C2O)C(CC=O)CC(C)C(=O)/C=C/C(C)=C/C1C (stereo not drawn)
MIC [1]: > 100 µg/mL
MIC [2]: 0.4 µg/mL (≈ 0.456 µM)
MIC [3]: 6.3 µg/mL (≈ 7.17 µM)
MIC [4]: 1.6 µg/mL (≈ 1.82 µM)

SMILES: CCC1OC(=O)CC(O)C(C)C(OC2OC(C)C(OC3CC(C)(O)C(OS(=O)(=O)c4ccc(C)cc4)C(C)O3)C(N(C)C)C2O)C(CC=O)CC(C)C(=O)/C=C/C(C)=C/C1C (stereo not drawn)
MIC [1]: 3.1 µg/mL (≈ 3.52 µM)
MIC [2]: 0.4 µg/mL (≈ 0.454 µM)
MIC [3]: 6.3 µg/mL (≈ 7.16 µM)
MIC [4]: < 0.2 µg/mL

SMILES: CCC1OC(=O)CC(O)C(C)C(OC2OC(C)C(OC3CC(C)(O)C(OC(=O)Cc4cccs4)C(C)O3)C(N(C)C)C2O)C(CC=O)CC(C)C(=O)C=CC(C)=CC1C (stereo not drawn)
MIC [1]: 3.1 µg/mL (≈ 3.65 µM)
MIC [2]: 0.4 µg/mL (≈ 0.471 µM)
MIC [3]: 1.6 µg/mL (≈ 1.88 µM)
MIC [4]: 0.2 µg/mL (≈ 0.235 µM)

The remaining lines, values ahead:

MIC [1]: 3.1 µg/mL (≈ 3.6 µM)
MIC [2]: 1.6 µg/mL (≈ 1.86 µM)
MIC [3]: 1.6 µg/mL (≈ 1.86 µM)
MIC [4]: < 0.2 µg/mL
SMILES: CCC1OC(=O)CC(O)C(C)C(OC2OC(C)C(OC3CC(C)(O)C(OC(=O)C(O)c4ccccc4)C(C)O3)C(N(C)C)C2O)C(CC=O)CC(C)C(=O)C=CC(C)=CC1C (stereo not drawn)

MIC [1]: 25 µg/mL (≈ 27.7 µM)
MIC [2]: 0.8 µg/mL (≈ 0.887 µM)
MIC [3]: 3.1 µg/mL (≈ 3.44 µM)
MIC [4]: 0.8 µg/mL (≈ 0.887 µM)
SMILES: CCC1OC(=O)CC(O)C(C)C(OC2OC(C)C(OC3CC(C)(O)C(OC(=O)C(OC(C)=O)c4ccccc4)C(C)O3)C(N(C)C)C2O)C(CC=O)CC(C)C(=O)/C=C/C(C)=C/C1C (stereo not drawn)

MIC [1]: 6.3 µg/mL (≈ 7.46 µM)
MIC [2]: 0.8 µg/mL (≈ 0.947 µM)
MIC [3]: 3.1 µg/mL (≈ 3.67 µM)
MIC [4]: 0.8 µg/mL (≈ 0.947 µM)
SMILES: CCC1OC(=O)CC(O)C(C)C(OC2OC(C)C(OC3CC(C)(O)C(OC(=O)Nc4ccccc4)C(C)O3)C(N(C)C)C2O)C(CC=O)CC(C)C(=O)/C=C/C(C)=C/C1C (stereo not drawn)

MIC [1]: 3.1 µg/mL (≈ 3.53 µM)
MIC [2]: < 0.2 µg/mL
MIC [3]: 1.6 µg/mL (≈ 1.82 µM)
MIC [4]: < 0.2 µg/mL
SMILES: CCC1OC(=O)CC(O)C(C)C(OC2OC(C)C(OC3CC(C)(O)C(OC(=O)CSc4ccncc4)C(C)O3)C(N(C)C)C2O)C(CC=O)CC(C)C(=O)C=CC(C)=CC1C (stereo not drawn)
